Test system: DIO-NASH mouse model
Assay: Biopsy-confirmed DIO-NASH (AMLN diet) mouse model, 12 weeks of daily treatment
Assay type: in vivo
Experimental: ALT-801 was evaluated for its metabolic and anti-fibrotic effects during 12 weeks of treatment in the well-documented Amylin Liver NASH (AMLN) DIO-NASH mouse model[22],[44] at Gubra ApS. Mice had ad libitum access to tap water and a diet high in fat (40%, containing 18% trans-fat; 40% carbohydrates, 20% fructose) and 2% cholesterol (AMLN diet; D09100301, Research Diets, New Brunswick, NJ). Semaglutide (GLP-1R agonist) and elafibranor (peroxisome proliferator-activated receptor [PPAR]-α/δ agonist) were included as comparators to assess the effects of added GCGR agonism, and a previously observed modest antifibrotic effect in this assay, respectively. […]
After 29 weeks of diet induction (week-3 relative to start of treatment) a pre-treatment liver biopsy was performed as described in detail previously[44] to select animals for stratification and randomization based on histological assessment. Liver histology was scored using the NAS and fibrosis stage criteria defined by the NASH Clinical Research Network Pathology Committee[47] and only those animals with confirmed steatosis (score ≥ 2) and fibrosis (stage ≥ 1) were selected for stratification and randomization. A stratified randomization into treatment groups was performed for the biopsy-proven DIO-NASH mice according to liver collagen type 1 alpha 1 (Col1A1) quantification at week-3. […]

For `CSc1ccc(C(=O)/C=C/c2cc(C)c(OC(C)(C)C(=O)O)c(C)c2)cc1` [elafibranor], the “Animals with reduction in fibrosis stage of 1 or greater compared to the start of treatment” value (12 weeks) was 75% and the “Body weight vs. vehicle” value (daily for 12 weeks, ALT-801 5 and 10 nmol/kg s.c., semaglutide 10 nmol/kg s.c., elafibranor 78 μmol/kg oral, stabilized after 2–3 weeks, n = 11–12) was “significant (p < 0.001) body weight decreases”.

Reference: publication PMC9035150, “Effects of ALT-801, a GLP-1 and glucagon receptor dual agonist, in a translational mouse model of non-alcoholic steatohepatitis” (Scientific Reports, 2022)
